Measurements as given in patent US20090131356A1, “miR-15, miR-26, miR-31, miR-145, miR-147, miR-188, miR-215, miR-216, miR-331, mmu-miR-292-3P REGULATED GENES AND PATHWAYS AS TARGETS FOR THERAPEUTIC INTERVENTION” (ASURAGEN, INC., priority 2006, published 2009).

System: Du145 human prostate cancer cells
Test: Long-term growth curve with repeated electroporation, Du145
Type: cell-based
Settings: 1.6 μM miRNA electroporated, repeated on days 7 and 14, day 20
Experimental: The inventors assessed the therapeutic effect of hsa-miR-15a for prostate cancer by using the Du145 human prostate cancer cell line, derived from a brain metastasis (Stone et al., 1978). The inventors conducted growth curve experiments in the presence of miRNA for up to 20 days. Since in vitro transfections of naked interfering RNAs, such as synthetic miRNA, are transient by nature and compromised by the dilution of the miRNA during ongoing cell divisions, miRNA was administered at multiple time points (Bartlett et al., 2006; Bartlett et al., 2007). To accommodate miRNA delivery into a large quantity of cells, the inventors employed the electroporation method for delivery of hsa-miR-15a or negative control miRNA into Du145 human prostate cancer cells. Briefly, 0.5×10^6 Du145 cells were electroporated with 1.6 μM hsa-miR-15a or negative control using the BioRad Gene Pulser Xcell™ instrument (BioRad Laboratories Inc., Hercules, Calif., USA), seeded and propagated in regular growth medium. Experiments were carried out in triplicates. When the control cells reached confluence (days 7 and 14), cells were harvested, counted and electroporated again with the respective miRNAs. To ensure similar treatment of both conditions as well as to accommodate exponential growth, the cell numbers used for the second and third electroporation were titrated down to the lowest count. The population doubling was calculated from these electroporation events using the formula PD=ln(Nf/N0)/ln2 and adjusting for the fact that approximately 72% of newly seeded cells adhere to the plate. Cell counts were extrapolated and plotted on a linear scale (FIG. 10). Arrows represent electroporation days. Standard deviations are included in the graphs.
To evaluate the therapeutic activity of hsa-miR-147 over an extended period of time, the inventors conducted growth curve experiments in the presence of miRNA for up to 21 days. Since in vitro transfections of naked interfering RNAs, such as synthetic miRNA, are transient by nature and compromised by the dilution of the oligo during ongoing cell divisions, miRNA was administered at multiple time points (Bartlett et al., 2006; Bartlett et al., 2007). To accommodate miRNA delivery into a large quantity of cells, the inventors employed the electroporation method to delivery hsa-miR-147 or negative control miRNA into PC3 and Du145 human prostate cancer cells. […] When the control cells reached confluence (days 7 and 14), cells were harvested, counted and electroporated again with the respective miRNAs. […] The population doubling was calculated from these electroporation events using the formula PD=ln(Nf/N0)/ln2 and adjusting for the fact that approximately 72% of newly seeded cells adhere to the plate. […]

hsa-miR-15a: Synthetic pre-miR-15a (Ambion); mature sequence UAGCAGCACAUAAUGGUUUGUG, MIMAT0000068, SEQ ID NO:1 (synthetic pre-miR (Ambion), chemistry not given here; listed as Homo sapiens)
cells relative to cells electroporated with negative control miRNA: 11.8% | inhibition of Du145 cell growth (relative to proliferation of control cells (100%)): 88.2%
